Experimental data from a melting point compilation (Tetko et al.).

Row | SMILES | melting point [°C]
1 | N#CCc1nccn1CC(F)(F)F | 106 to 108
2 | Cc1cc(Cl)ncc1O | 168 to 170
3 | O=C(O)c1cnoc1C1CC1 | 159 to 161
4 | Cn1cc(CC2CC(=O)NC2=O)cn1 (configuration not stated) | 116 to 118
5 | O=C(O)c1nc(-c2cccs2)n(-c2cccc(F)c2)n1 | 162 to 164
6 | Cn1ccnc1C(O)C1CCNCC1 (configuration not stated) | 207 to 209
7 | O=C(O)C=Cc1ccnc2ccccc12 | 256 to 258
8 | Cc1cnn(Cc2ccc(N)cc2)c1 | 78 to 80
9 | CC(=O)NCCc1cc(C(=O)CCl)ccc1F | 97 to 99
10 | c1ccc(-c2ncc[nH]2)nc1 | 133 to 135
11 | O=C(O)c1ccc(Br)cc1C(F)(F)F | 116 to 117
12 | Cc1nc(COc2ccccc2C(=O)O)no1 | 89 to 91
13 | O=C1CCc2cc(Br)c(F)cc2N1 | 210 to 212
14 | O=C(O)c1cc2ccccc2c(OCC(F)(F)F)n1 | 206 to 208
15 | N#CC1(N2CCN(Cc3ccccc3)CC2)CCOCC1 | 105 to 107
16 | O=C(O)CSCc1ccc(Cl)c(Cl)c1 | 67 to 69
17 | O=C(O)CSCC(=O)N1CCOCC1 | 119 to 121
18 | N#Cc1cc(C(=O)O)c(N)[nH]c1=O | 250 to 252
19 | O=C(O)CCCc1csc2ccccc12 | 109 to 111
20 | O=C(O)c1cc(COc2ccc(Cl)cc2Cl)on1 | 151 to 153
21 | O=C(O)c1ccc(-c2noc(C(F)(F)F)n2)cc1 | 249 to 251
22 | CC(C)CS(=O)(=O)CCC(=O)O | 110 to 112
23 | Cc1cc(C=O)c(C)n1-c1ccc(F)cc1F | 133 to 135

Row | SMILES | melting point [°C]
24 | CCCc1nn(-c2ccccc2F)c(Cl)c1C(=O)O | 169 to 171
25 | O=C1NC2(CCN(Cc3ccccc3)CC2)CO1 | 164 to 166
26 | Nc1nc(CCl)nc(Nc2ccc(F)cc2)n1 | 170 to 172
27 | O=C(Nc1ccccc1)C1CCc2ccccc2N1 (configuration not stated) | 124 to 126
28 | O=C(O)c1nn(-c2c(Cl)cc(Cl)cc2Cl)cc1O | 194 to 196
29 | O=C1C=CC=NC1=C(O)Nc1ccncc1 | 164 to 166
30 | COc1ccc(CN2CCCC2)cc1N | 46 to 48
31 | NNC(=O)Nc1ccc(CCO)cc1 | 149 to 151
32 | Cc1nc(S)nc(O)c1C | 276 to 278
33 | [N-]=[N+]=NCCN1C(=O)C(=O)c2ccccc21 | 71 to 73
34 | O=C(O)c1cnc(-c2ncccn2)s1 | 217 to 219
35 | CC1CNc2ccccc2C(=O)N1 (configuration not stated) | 189 to 191
36 | Cc1nn(C2CCS(=O)(=O)C2)c(C)c1C=O (configuration not stated) | 122 to 124
37 | CC(C)NC(=O)N1CCC(C(=O)O)CC1 | 137 to 139
38 | Clc1ccc(OCCBr)c(Br)c1 | 30 to 32
39 | CS(=O)(=O)N1CCCC1C(=O)O (configuration not stated) | 52 to 54
40 | N#CCc1nnc2n1CCCCC2 | 113 to 115
41 | Cc1oc(N)c(C#N)c1C | 163 to 169
42 | Clc1nnc(Cl)c(Cl)n1 | 56 to 58
43 | O=c1cccn[nH]1 | 94 to 98
44 | O=C(CN1CCNCC1)N1CCc2ccccc21 | 139 to 141
45 | Sc1nnc(-c2ccncc2)n1Cc1ccccc1 | 195 to 197
46 | O=[N+]([O-])c1ccn(CCBr)n1 | 50 to 52

Row | SMILES | melting point [°C]
47 | CC(N)c1nc(-c2ccccc2)c[nH]1 (configuration not stated) | 129 to 131
48 | O=C(O)CCC(=O)N1CCc2sccc2C1 | 130 to 132
49 | Cc1ccc(-n2nc(C(=O)O)cc2-c2ccc(-c3ccccc3)cc2)cc1 | 205 to 207
50 | OCC1Cc2cc(Br)ccc2O1 (configuration not stated) | 63 to 65
51 | COc1ccc(CNc2ccncn2)cc1OC | 124 to 126
52 | O=C1CC(C(=O)O)CS1 (configuration not stated) | 108 to 110
53 | O=c1cc(CCl)nc2ccccn12 | 173 to 175
54 | COC(=O)c1nsnc1C(=O)O | 82 to 84
55 | O=C(CCl)c1ccc(NC(=O)c2ccccc2)cc1 | 140 to 142
56 | Nc1ccc(C(=O)N2CCC(CO)CC2)cc1 | 138 to 140
57 | COc1ccccc1NC(=O)c1cc2ccccc2cc1O | 161 to 164
58 | Cc1n[nH]c(C(=O)O)c1O | 184 to 186
59 | FC(F)c1nc(Cl)c2ccccc2n1 | 85 to 87
60 | O=C(O)c1oc2ccccc2c1CSc1cccs1 | 166 to 168
61 | [N-]=[N+]=Nc1ccnc(CO)c1 | 59 to 61
62 | NCc1cccc(NC(=O)C2CCC2)c1 | 61 to 63
63 | CCOC(=O)CNc1ccccc1-c1ccccc1 | 53 to 55
64 | C#CCN1CCC(NC2CCOCC2)CC1 | 74 to 76
65 | O=C(CCl)NC1CCCCNC1=O (configuration not stated) | 196 to 198
66 | N#Cc1cc(C=O)ccc1F | 80 to 84
67 | C1CC2OC1C1CNCC21 (configuration not stated) | 53 to 55
68 | Cc1ccc(SC2CCCC2)c(C(=O)O)c1 | 130 to 132
69 | Cc1nn(Cc2ccccc2)c(C)c1C=NO | 135 to 137

Row | SMILES | melting point [°C]
70 | Cn1c(CO)nc2cc(C(F)(F)F)ccc21 | 170 to 172
71 | O=C1CC2(CCCC2)Oc2ccccc21 | 35 to 37
72 | O=C(O)c1ccc(Cl)c2cccnc12 | 199 to 201
73 | CCCn1c(N)c(NCCN2CCOCC2)c(=O)[nH]c1=O | 153 to 155
74 | COC(=O)C1CSCCC1=O (configuration not stated) | 67 to 69
75 | CCN1CCCC1CNC(=O)C1CCNCC1 (configuration not stated) | 191 to 194
76 | CCCC(=O)N1CCCC1C(=O)O (configuration not stated) | 115 to 117
77 | CC(C)NC(=O)OCC(F)(F)F | 48 to 50
78 | O=C(Cn1cccn1)NC1CCCCC1 | 116 to 118
79 | Cn1cnc([N+](=O)[O-])c1Br | 177 to 179
80 | O=C1CNc2ccc(Br)cc2N1 | 169 to 171
81 | CSc1c[nH]nc1N | 76 to 78
82 | Nc1nc2ccc(Oc3ccccc3)cc2s1 | 159 to 161
83 | O=C1NC(=O)N(Cc2cccs2)C1=O | 170 to 172
84 | CSc1nc(NC(C)=O)n(C(C)=O)n1 | 226 to 228
85 | O=C(O)c1c[nH]cc1C1CC1 | 150 to 152
86 | N#Cc1c(C(=O)O)cc(C2CC2)[nH]c1=S | 258 to 260
87 | Cc1nc(-c2c(C)c(C)nn(C)c2=O)sc1C(=O)O | 239 to 241
88 | CSc1cc(C(=O)O)oc1C | 144 to 146
89 | CC1CN(C(=O)CCl)CC(C)O1 (configuration not stated) | 61 to 63
90 | NC(=O)C1=CCCC1 | 166 to 168

Now from value to molecule:

Row | melting point [°C] | SMILES
91 | 271 to 273 | Cc1ccc(O)c(C(=O)Nc2nc(CC(=O)O)cs2)c1
92 | 151 to 153 | Cc1cc(CC(=O)NN)[nH]n1
93 | 127 to 129 | COC(=O)c1n[nH]c(=O)c2ccccc12
94 | 136 to 138 | COC(=O)c1ccc(-n2cc(C)cn2)c(N)c1
95 | 174 to 176 | COC1=CC(=C(N)N=O)C=CN1
96 | 107 to 109 | O=C1CC(c2ccccc2)N1 (configuration not stated)
97 | 56 to 58 | O=C1CSCc2ccccc21
98 | < 17 | CCOc1ccc(N)cc1S(=O)(=O)N(C)C
99 | 53 to 55 | CC(C)n1cc(S(=O)(=O)Cl)cn1
100 | 82 to 84 | COc1cc(C=O)ccc1OS(=O)(=O)c1cc(C)ccc1C
101 | 299 to 301 | NS(=O)(=O)c1c[nH]c(=O)[nH]c1=O
102 | 207 to 209 | O=C(O)c1cccc(S(=O)(=O)N2CCc3sccc3C2)c1
103 | 92 to 94 | Cc1ccccc1OCCC(=O)O
104 | 67 to 69 | CCOC(=O)c1c(N=C=S)sc(C)c1C
105 | 92 to 96 | O=C(O)c1c(F)ccc([N+](=O)[O-])c1F
106 | 121 to 123 | CS(=O)(=O)Cc1cccc(N)c1
107 | 73 to 75 | O=[N+]([O-])c1cc(F)c(S(=O)(=O)Cl)c(F)c1
108 | 238 to 240 | CCCCn1c(N)cc(=O)[nH]c1=O
109 | 179 to 181 | CC(C)(C)c1ccc(C2(C(=O)O)CCC2)cc1

Row | melting point [°C] | SMILES
110 | 79 to 81 | Cc1ccc(C)c(N2C(=O)C=CC2=O)c1
111 | 47 to 49 | CCC(=O)c1ccc(Cl)s1
112 | 199 to 201 | Cc1ccc(C(N)CC(=O)O)o1 (configuration not stated)
113 | 69 to 71 | Cc1cc2cc(C=O)oc2cc1C
114 | 198 to 200 | CCNS(=O)(=O)c1ccc(Br)c(C(=O)O)c1
115 | 38 to 40 | COc1ccc(Cl)c(N=C=O)c1
116 | 159 to 161 | Cc1cccc(Nc2nnc(SCC(=O)O)s2)c1C
117 | 80 to 82 | CC(C)(C)c1ccc(S(N)(=O)=O)s1
118 | 121 to 123 | O=C(O)CCCS(=O)c1ccc(Br)cc1 (configuration not stated)
119 | 72 to 74 | COC(=O)c1c(C2CC2)csc1N
120 | 154 to 156 | NS(=O)(=O)c1ccc(Cl)nc1
121 | 50 to 52 | CN(C)c1nccc(C=O)n1
122 | 68 to 70 | CCS(=O)(=O)Nc1ccccc1F
123 | 194 to 196 | Cc1ccc(-c2nc(C(=O)O)cs2)o1
124 | 221 to 223 | COc1ccc2[nH]c(C(=O)O)cc2c1OC
125 | 72 to 74 | COc1ccc(SCCC(=O)O)cc1OC
126 | 249 to 251 | CC1(c2ccc(S(N)(=O)=O)cc2)NC(=O)NC1=O (configuration not stated)
127 | 139 to 141 | C#CCNC(=O)c1ccc(Cl)nc1
128 | 159 to 161 | Cc1ccc(C(=O)NCCC(=O)O)c(O)c1

Row | melting point [°C] | SMILES
129 | 57 to 59 | CC(C)(C)OC(=O)NC(CN)C1CC1 (configuration not stated)
130 | 119 to 121 | CCOC(=O)C(C#N)C1C(=O)N(C)c2ccccc21 (configuration not stated)
131 | 107 to 109 | O=C(O)c1ccccc1S(=O)(=O)C(F)(F)F
132 | 157 to 159 | O=C(O)CCc1ccc(S(=O)(=O)Cl)cc1
133 | 129 to 131 | CC(C)S(=O)(=O)c1ccc(Cl)c(C(=O)O)c1
134 | 190 to 192 | Cc1ccc(S(=O)(=O)N2CCC(C(=O)O)CC2)cc1C
135 | 153 to 155 | COc1cc(NS(=O)(=O)c2ccc(N)cc2)cc(OC)c1
136 | 65 to 67 | CC(C)(C)OC(=O)NC(CN)c1ccccc1 (configuration not stated)
137 | 195 to 197 | O=C(O)c1ccc(Cl)c(S(=O)(=O)N2CCc3ccccc32)c1
138 | 103 to 105 | CN1CCN(S(=O)(=O)c2cccc(Br)c2)CC1
139 | 275 to 277 | Cc1ccc(Cl)c2c1NC(=O)C2=O
140 | 64 to 66 | CC(C)c1ccc(C=NO)cc1
141 | 69 to 71 | CC1(c2ccc(Br)cc2)CC(=O)OC1=O (configuration not stated)
142 | 231 to 233 | CCS(=O)(=O)N1CCc2cc(C(=O)CCl)ccc21
143 | 69 to 71 | CS(=O)(=O)c1cccc(O)c1
144 | 50 to 52 | CC(=O)c1cc(C)cc(C(C)=O)c1O
145 | 211 to 213 | Nc1ccc(S(=O)(=O)Nc2nncs2)cc1
146 | 126 to 128 | NC(=O)c1ccncc1F
147 | 43 to 45 | CC(C)(C)OC(=O)NCC1CCCC1N (configuration not stated)
